US20220315895A1, “METHODS OF MAKING OLIGOPOTENT AND UNIPOTENT PRECURSORS” (Transfusion Health, LLC, priority 2019, published 2022)

Legend:
[1] = test system: hematopoietic stem cells derived from cord blood; test: Enhancement of HSCs derived from cord blood with Compound 1.008 (Example 34); format: cell-based; conditions: ER50891 100 nM added to Compound 1.008 250 nM (+1.008/+ER conditions), compared with +1.008 alone
Description: A frozen cord blood sample was thawed and gradually brought to room temperature. Thawed cord blood was incubated in an in vitro culture media of Alpha MEM without phenol red, 10% (v/v) heat inactivated fetal bovine serum (FBS). Four samples were tested: Base conditions, +SF Conditions, +1.008 Conditions, and +1.008/+ER conditions. The components included in each condition is described in [0574] Table 4. Each condition tested also included an antibiotic solution that includes penicillin, streptomycin, and amphotericin B to avoid contamination.
(§1) Cultures were incubated at […] (controlled by nitrogen) and 5% CO2.
(§2) Small molecule components were added separately and fresh each time the media needs to be refreshed. Cytokines can be stored together. Media renewal should occur at least every few days.
(§3) On the days indicated varying amounts of the cell culture was removed for data analysis (flow cytometry using a BD FACS ARIA II) and to avoid overcrowding of cells. The culture volume was replenished with fresh media according to the conditions tested. The data reported accounts for the dilution factor introduced in this procedure.

[2] = test system: CD34+ cells isolated from donor peripheral blood; test: Enhancement of HSCs derived from non-mobilized peripheral blood with compounds of Formula I (Example 33); format: cell-based; conditions: normalized fold change days 2 to 7
Description: CD34+ cells were isolated from donor peripheral blood. Standard buffy coat separation using ficoll paque was performed. Cells were pelleted and incubated with unlabeled CD64 antibody. Cells then underwent negative depletion using biotinylated CD2, CD3, CD4, CD5, CD8, CD11b, CD14, CD16, CD19, CD20, CD45RA, CD56, CD235 (in some examples CD15, CD25 and other lineage specific antibodies may also be used). Cells which bind these antibodies are depleted using streptavidin beads. The enriched progenitor pool then undergoes cell sorting for CD34+.
Isolated CD34+ cells were incubated in an in vitro culture media of Alpha MEM without phenol red with 10% (v/v) heat inactivated fetal bovine serum (FBS). When testing compounds of Formula I, two internal controls were used: a positive control (+SF conditions) and a baseline control (i.e. basic conditions (“cytokines only”)). The media components and concentrations used for the compounds tested are described in [0563] Table 2. The culture also included an antibiotic solution that includes penicillin, streptomycin, and amphotericin B to avoid contamination. Controls were included because the amount of expansion in samples obtained varies from individual to individual.
as §1, §2
as §3, with “one-half of the volume” for “varying amounts”, “II).” for “II) and to avoid overcrowding of cells.”
Separate experiments were performed for each compound tested (Compound 1.001-1.023).
(§4) Table 3, below, summarizes the relative expansive effect of Compound 1.001 to 1.023 (sample compounds) at the indicated concentration. The data in Table 3 is reported as the relative expansive effect. The relative expansive effect is a normalized value of the fold changes shown in each of FIG. 1-FIG. 23. It is calculated as shown below: […]

[3] = test system: CD34+ cells from cord blood; test: Expansion of cord blood CD34+ cells, seven-day culture (Example 35); format: cell-based, human; conditions: normalized fold change days 1 to 7
Description: CD34+ cells from cord blood were purchased from STEMCELL Technologies. Primary human CD34+ cells were isolated from cord blood samples using positive immunomagnetic separation techniques. Cells were thawed and gradually brought to room temperature. Samples were washed, then placed in overnight culture in StemSpan with 100 ng/ml each of FLT3L, TPO, SCF, and TL-6. Eighteen to twenty-four hours later (day 1), cells were counted and immunophenotyped (flow cytometry on an Invitrogen Attune N×T cytometer).
Approximately 1000 live cells were plated into each well of 96-well plates; exact cell numbers dispensed per well were quantified with flow cytometry for later calculations.
Media for testing compounds of Formula I was prepared using Alpha MEM without phenol red, 10% (v/v) heat inactivated fetal bovine serum. Culture conditions also included an antibiotic solution that includes penicillin, streptomycin, and amphotericin B to avoid contamination. Additional media components and concentrations used for the compounds tested are described in Table 5.
All incubations for this experiment took place at 3% oxygen (controlled by nitrogen) and 5% CO2. Following seven days of culture, cells from wells were collected and phenotypes were analyzed (flow cytometry on an Invitrogen Attune N×T cytometer).
as §4, with “6” for “3,”, “the screened compounds” for “Compound 1.001 to 1.023 (sample compounds)”, “6” for “3”, “the figures.” for “FIG. 1-FIG. 23.”

ER50891 [reference compound]
fold increase levels of HSC populations on addition of ER50891 [1]: even further improved

CC(=O)Nc1ccc2c(c1)C(OC(C)=O)c1ccccc1-2 (stereo not shown) [Compound 1.022, 2-acetamido-9H-fluoren-9-yl acetate]
CD90 effect (relative expansive effect on CD34+/CD133+/CD90+ cells) ([2]; sample compound 32 μM): +++++ (1.25 ≤ x) | CD133 effect (relative expansive effect on CD34+/CD133+ cells) ([2]; sample compound 32 μM): +++ (0.55 ≤ x < 0.9) | CD90 effect (relative expansive effect on CD34+/CD133+/CD90+ cells) ([3]; sample compound 8 μM): ++ (1.44 ≤ x < 1.8) | CD133 effect (relative expansive effect on CD34+/CD133+ cells) ([3]; sample compound 8 μM): +++ (1.8 ≤ x < 2.16)

CC(C)(C)C(=O)Nc1ccc2c(c1)C(N)c1ccccc1-2 (stereo not shown) [Compound 1.015, N-(9-amino-9H-fluoren-2-yl)pivalamide]
CD90 effect (relative expansive effect on CD34+/CD133+/CD90+ cells) ([2]; sample compound 2 μM): ++++ (0.9 ≤ x < 1.25) | CD133 effect (relative expansive effect on CD34+/CD133+ cells) ([2]; sample compound 2 μM): +++ (0.55 ≤ x < 0.9) | CD90 effect (relative expansive effect on CD34+/CD133+/CD90+ cells) ([3]; sample compound 0.5 μM): ++ (1.44 ≤ x < 1.8) | CD133 effect (relative expansive effect on CD34+/CD133+ cells) ([3]; sample compound 0.5 μM): ++ (1.44 ≤ x < 1.8)

CC(C)(C)C(=O)Nc1ccc2c(c1)C(=O)C1CCCCC21 (stereo not shown) [Compound 1.002, N-(9-oxo-2,3,4,4a,9,9a-hexahydro-1H-fluoren-7-yl)pivalamide]
CD90 effect (relative expansive effect on CD34+/CD133+/CD90+ cells) ([2]; sample compound 16 μM): ++ (0.2 ≤ x < 0.55) | CD133 effect (relative expansive effect on CD34+/CD133+ cells) ([2]; sample compound 16 μM): + (x < 0.2)

CC(C)(C)Nc1ccc2c(c1)C(=O)c1ccccc1-2 [Compound 1.004, 2-(tert-butylamino)-9H-fluoren-9-one]
CD90 effect (relative expansive effect on CD34+/CD133+/CD90+ cells) ([2]; sample compound 8 μM): +++ (0.55 ≤ x < 0.9) | CD133 effect (relative expansive effect on CD34+/CD133+ cells) ([2]; sample compound 8 μM): ++ (0.2 ≤ x < 0.55)

CC(=O)Nc1ccc2c(c1)C(=O)c1cc(NC(C)=O)ccc1-2 [Compound 1.012, N,N′-(9-oxo-9H-fluorene-2,7-diyl)diacetamide]
CD90 effect (relative expansive effect on CD34+/CD133+/CD90+ cells) ([2]; sample compound 0.25 μM): ++ (0.2 ≤ x < 0.55) | CD133 effect (relative expansive effect on CD34+/CD133+ cells) ([2]; sample compound 0.25 μM): ++ (0.2 ≤ x < 0.55)

CC(C)(C)C(=O)Nc1cc2c(cc1O)-c1ccccc1C2=O [Compound 1.014, N-(3-hydroxy-9-oxo-9H-fluoren-2-yl)pivalamide]
CD90 effect (relative expansive effect on CD34+/CD133+/CD90+ cells) ([2]; sample compound 8 μM): +++ (0.55 ≤ x < 0.9) | CD133 effect (relative expansive effect on CD34+/CD133+ cells) ([2]; sample compound 8 μM): ++ (0.2 ≤ x < 0.55) | CD90 effect (relative expansive effect on CD34+/CD133+/CD90+ cells) ([3]; sample compound 8 μM): ++ (1.44 ≤ x < 1.8) | CD133 effect (relative expansive effect on CD34+/CD133+ cells) ([3]; sample compound 8 μM): ++ (1.44 ≤ x < 1.8)

CC(C)(C)C(=O)Nc1ccc2c(c1)C(=O)c1ccc(O)cc1-2 [Compound 1.016, N-(6-hydroxy-9-oxo-9H-fluoren-2-yl)pivalamide]
CD90 effect (relative expansive effect on CD34+/CD133+/CD90+ cells) ([2]; sample compound 16 μM): ++++ (0.9 ≤ x < 1.25) | CD133 effect (relative expansive effect on CD34+/CD133+ cells) ([2]; sample compound 16 μM): ++ (0.2 ≤ x < 0.55)

CNc1ccc2c(c1)C(O)c1ccccc1-2 (stereo not shown) [Compound 1.018, 2-(methylamino)-9H-fluoren-9-ol]
CD90 effect (relative expansive effect on CD34+/CD133+/CD90+ cells) ([2]; sample compound 4 μM): ++ (0.2 ≤ x < 0.55) | CD133 effect (relative expansive effect on CD34+/CD133+ cells) ([2]; sample compound 4 μM): + (x < 0.2)

CC(C)(C)OC(=O)Nc1ccc2c(c1)C(=O)c1ccccc1-2 [Compound 1.003, tert-butyl (9-oxo-9H-fluoren-2-yl)carbamate]
CD90 effect (relative expansive effect on CD34+/CD133+/CD90+ cells) ([2]; sample compound 0.5 μM): ++ (0.2 ≤ x < 0.55) | CD133 effect (relative expansive effect on CD34+/CD133+ cells) ([2]; sample compound 0.5 μM): ++ (0.2 ≤ x < 0.55)
